The source made the active and inactive calls. No cut-off for these calls is given here.
Assays:
[1] = target: T1, Cyclooxygenase (Rattus norvegicus, UniProt P35355+Q63921)
T1 sequence (P35355 whole entry): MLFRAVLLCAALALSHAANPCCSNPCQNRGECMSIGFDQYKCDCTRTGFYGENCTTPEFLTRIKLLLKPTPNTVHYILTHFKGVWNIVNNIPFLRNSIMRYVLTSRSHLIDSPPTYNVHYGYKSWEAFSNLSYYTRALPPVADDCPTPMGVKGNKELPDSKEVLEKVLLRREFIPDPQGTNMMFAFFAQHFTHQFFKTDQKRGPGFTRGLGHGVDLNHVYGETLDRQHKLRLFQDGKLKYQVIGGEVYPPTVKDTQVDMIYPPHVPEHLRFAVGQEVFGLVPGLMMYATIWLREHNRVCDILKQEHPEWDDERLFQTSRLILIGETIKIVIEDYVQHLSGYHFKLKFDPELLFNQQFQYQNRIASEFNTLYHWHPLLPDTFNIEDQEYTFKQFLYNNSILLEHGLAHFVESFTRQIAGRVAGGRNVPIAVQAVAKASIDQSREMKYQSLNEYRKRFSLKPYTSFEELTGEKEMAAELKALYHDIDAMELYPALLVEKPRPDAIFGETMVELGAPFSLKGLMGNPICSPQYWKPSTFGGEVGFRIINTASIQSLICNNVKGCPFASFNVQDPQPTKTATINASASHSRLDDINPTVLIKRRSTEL
T1 sequence (Q63921 whole entry): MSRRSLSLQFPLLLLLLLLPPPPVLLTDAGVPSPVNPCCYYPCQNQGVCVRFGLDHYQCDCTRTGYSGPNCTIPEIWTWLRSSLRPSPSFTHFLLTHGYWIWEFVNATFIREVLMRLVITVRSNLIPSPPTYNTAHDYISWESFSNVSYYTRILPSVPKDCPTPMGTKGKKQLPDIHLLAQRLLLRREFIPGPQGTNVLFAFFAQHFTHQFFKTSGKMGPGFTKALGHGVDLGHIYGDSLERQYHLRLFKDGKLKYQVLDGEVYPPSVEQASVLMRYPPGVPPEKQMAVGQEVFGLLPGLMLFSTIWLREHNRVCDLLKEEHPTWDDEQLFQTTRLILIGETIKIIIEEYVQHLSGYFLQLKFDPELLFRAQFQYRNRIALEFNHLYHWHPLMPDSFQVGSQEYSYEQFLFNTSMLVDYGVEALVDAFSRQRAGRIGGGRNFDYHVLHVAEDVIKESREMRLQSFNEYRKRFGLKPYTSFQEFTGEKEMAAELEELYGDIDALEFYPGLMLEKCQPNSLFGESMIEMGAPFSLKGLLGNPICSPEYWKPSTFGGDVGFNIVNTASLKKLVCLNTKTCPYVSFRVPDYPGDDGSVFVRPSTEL

[2] = species on record: Rattus norvegicus; assay: Pharmacological potency relative to indomethacin for prodrug candidate by adjuvant-induced arthritis assay; assay type: functional
[3] = species on record: Rattus norvegicus; assay: (§1) Potency in adjuvant-induced arthritis assay/ potency in intestinal toxicity assay.; assay type: functional
[4] = Antiinflammatory activity was tested in Pleural effusion rate assay and the percent change in average volume of pleural fluid at the dose of 316 mg/kg; Inactive
[5] = as §1; conditions: read-out: Therapeutic index
[6] = test system: Rattus norvegicus; assay: Antiinflammatory activity was tested in Pleural effusion rate assay for and the percent change in average volume of pleural fluid at the dose of 4.0 mg/kg; assay type: functional
[7] = target: Prostaglandin G/H synthase 1 (Ovis aries) (UniProt P05979); assay: Inhibitory activity against Prostaglandin G/H synthase
[8] = species on record: Rattus norvegicus; assay: potency in adjuvant-induced arthritis assay/ potency in intestinal toxicity assay.; assay type: functional

Nc1c(CCO)cccc1C(O)c1ccc(Cl)cc1 (stereo unspecified)
IC50 [1]: > 1000 µM
Potency [2]: 0.05

Nc1c(CCO)cccc1C(O)c1ccccc1 (stereo unspecified)
IC50 [1]: > 500 µM
Potency [2]: 0.005

Nc1c(CC(=O)[O-])cccc1C(=O)C1CCCCC1.[Na+]
Potency [2]: 0.004

Nc1c(CCO)cccc1C(=O)c1ccc(Cl)cc1
IC50 [1]: > 1000 µM
Potency [2]: 0.8
Therapeutic index [3]: 3.3

NC(=O)Cc1cccc(C(=O)c2ccc(Cl)cc2)c1N
IC50 [1]: > 1000 µM
Potency [2]: 0.8
Therapeutic index [3]: 10

Nc1c(C(=O)CCC(=O)O)cccc1C(=O)c1ccc(Cl)cc1
IC50 [1]: > 1000 µM
Potency [2]: 0.9
Therapeutic index [3]: 3

O=C(O)Cc1cccc2c(-c3ccccc3)onc12
IC50 [1]: > 1000 µM
Potency [2]: 0.6
Therapeutic index [3]: 2.5

Nc1c(CC(=O)[O-])cccc1C(=O)c1ccc(Cl)cc1.[Na+]
IC50 [1]: 0.1 µM
Potency [2]: 2.2
Therapeutic index [3]: 1.6

O=C1Cc2cccc(C(=O)c3ccccc3)c2N1
Change [4]: inactive

CCOC(=O)Cc1cccc(C(=O)c2ccc(Cl)cc2)c1N
IC50 [1]: 73 µM
Potency [2]: 1
Therapeutic index [3]: 1.7

O=C1Cc2cccc(C(=O)c3ccc(Cl)cc3)c2N1
Change [4]: inactive

Nc1c(CC(=O)[O-])cccc1C(=O)c1ccccc1.[Na+] [AMFENAC SODIUM]
IC50 [1]: 0.1 µM
Potency [2]: 1.1
Therapeutic index [3]: 2.8

NC(=O)Cc1cccc(C(=O)c2ccccc2)c1N
IC50 [1]: > 100 µM
Potency [2]: 0.09

O=C(O)Cc1cccc(C(=O)c2ccc(Cl)cc2)c1[N+](=O)[O-]
selectivity ratio [5]: 3.4
Potency [2]: 1.7
Change [6]: -21%
IC50 [7]: > 1000 µM

Nc1c(CCO)cccc1C(=O)c1ccccc1
IC50 [1]: > 100 µM
Potency [2]: 0.05

CC(=O)c1cccc(C(=O)c2ccccc2)c1N
Change [4]: inactive

N#CCc1cccc(C(=O)c2ccc(Cl)cc2)c1N
Change [4]: inactive

O=C(O)Cc1cccc(C(=O)c2ccccc2)c1[N+](=O)[O-]
IC50 [1]: > 1000 µM
Potency [2]: 0.5
Therapeutic index [3]: 5

O=C(O)Cc1cccc2c(-c3ccc(Cl)cc3)onc12
IC50 [1]: > 500 µM
Potency [2]: 1
Therapeutic index [8]: 1

Nc1c(CC(=O)[O-])cccc1C(O)c1ccc(Cl)cc1.[Na+] (stereo unspecified)
IC50 [1]: > 1000 µM
Potency [2]: 0.002

Nc1c(C(=O)CCC(=O)O)cccc1C(=O)c1ccccc1
IC50 [1]: > 1000 µM
Potency [2]: 0.4
Therapeutic index [3]: 2.5

CCOC(=O)Cc1cccc(C(=O)c2ccccc2)c1N
IC50 [1]: 50 µM
Potency [2]: 0.3
Therapeutic index [3]: 0.4

CCOC(=O)Cc1cccc(C(=O)c2ccc(Cl)cc2)c1NC(=O)C(F)(F)F
IC50 [1]: > 1000 µM
Potency [2]: 1
Therapeutic index [3]: 3.3

COc1ccc2c(c1)c(CC(=O)O)c(C)n2C(=O)c1ccc(Cl)cc1 [INDOMETHACIN]
Potency [2]: 1

CC(=O)Nc1c(CC(=O)O)cccc1C(=O)c1ccccc1
Change [4]: inactive

CN(C)c1c(CC(=O)O)cccc1C(=O)c1ccccc1
IC50 [1]: > 1000 µM
Potency [2]: 0.009

Nc1c(CC(=O)[O-])cccc1C(O)c1ccccc1.[Na+] (stereo unspecified)
IC50 [1]: > 1000 µM
Potency [2]: 0.001
